“And” between values parts separate entries of the source, which are not always exact repeats. Equal entries are not always repeated. Where no end group is shown, it is not given here.
How the values were obtained:
Type in all cases: in vivo
[1] = tested on: normal conscious sheep; assay: Plasma cGMP (RIA) and cAMP (ELISA) responses to stepped OSTN infusion; conditions: sheep n = 8, mean ± SD
Protocol: (§1) Sheep received I.V. infusions of increasing doses of ovine proOSTN (83–133), the putative 51 aa circulating peptide (at 2.5, 25 and 250 pmol/kg/min for 1 h each; Mimotopes, Melbourne, Victoria, Australia) and a vehicle control (0.9% saline) administered on separate days, ≥1 day apart, in a balanced random order.
(§2) Venous blood samples were obtained at 30 min and immediately preceding commencement of the first infusion (baseline) and at 30 min intervals for the duration of the study day. Samples were taken into tubes on ice, centrifuged at 4°C and stored at −20°C before assaying. Following extraction over C18 SepPac cartridges (Waters Corp., Milford, MA, USA), plasma concentrations of cGMP (Charles et al., [1990]), ANP (Charles et al., [1990]), BNP (Pemberton et al., [1997]), CNP (Charles et al., [1995]) and N‐terminal proCNP (NTproCNP) (Wilson et al., [2015]), were measured by radioimmunoassay (RIA) as previously described. Non‐extracted plasma renin activity (PRA) (Dunn & Espiner, [1976]) and aldosterone (Lun et al., [1983]) were measured as previously described. Cyclic AMP was measured by enzyme‐linked immunosorbent assay (catalogue no. ADI‐900‐163; Enzo Life Sciences, Farmingdale, NY, USA). For each analyte, all samples from individual animals were measured in the same assay to avoid interassay variability. Haematocrit concentrations were measured with every blood sample taken.

[2] = tested on: normal conscious sheep; assay: Plasma renin activity and aldosterone responses to stepped OSTN infusion; conditions: sheep n = 8, mean ± SD
Protocol: as §1, §2

[3] = tested on: normal conscious sheep; assay: Renal responses (hourly urine collections, nephrogenous cGMP/cAMP) to stepped OSTN infusion; conditions: for Urine cAMP / Urine creatinine / Urine potassium: hourly urine collection, sheep n = 8, mean ± SD
Protocol: Eight Coopworth ewes (4–6 years; 42–60 kg; Lincoln University Farm, New Zealand) were instrumented under general anaesthesia (induced by 0.5 mg/kg diazepam I.V. and 4 mg/kg ketamine I.V. and maintained with a mixture of isoflurane and oxygen) and using approved peri‐ and postoperative antibiotics (20 mg/kg cephazolin I.V.; 6.6–20 mg/kg oxytetracycline I.V.) and analgesia (4 mg/kg carprofen I.V.). Sheep were instrumented via a 50‐mm‐long neck incision, allowing cannulation of the left carotid artery (16 gauge Angiocath; Becton Dickinson, Sandy, UT, USA) for direct measurement of mean arterial pressure (MAP) and heart rate (HR). A polyethylene catheter was placed in the left jugular vein for blood sampling and recording of central venous pressure (CVP). A Swan–Ganz thermodilution catheter (Edwards Life Sciences, Irvine, CA, USA) was placed in the pulmonary artery via the jugular vein for the measurement of cardiac output (CO). The urinary bladder was catheterized per urethra for timed urine collections (Charles, Espiner, Nicholls et al., [1996]). Animals recovered for ≥5 days before commencing the study protocol.
as §1
Blood samples for analysis of plasma sodium, potassium and creatinine concentrations were taken immediately before the first dose (baseline), then hourly throughout the study. Urine volume and samples for the measurement of urine cGMP, urine cAMP, sodium, potassium and creatinine excretion were collected hourly throughout the study protocol. To estimate the contribution of renal tissues to urine cGMP/cAMP excretion, nephrogenous cGMP/cAMP was calculated using the formula [urine cG(A)MP − (glomerular filtration rate × plasma cG(A)MP/urine volume × min] (Hirata et al., [1990]).

[4] = tested on: normal conscious sheep; assay: Plasma ANP, BNP, CNP and NTproCNP responses to stepped OSTN infusion (RIA); conditions: for Plasma ANP / Plasma BNP / Plasma CNP: sheep n = 8, mean ± SD
Protocol: as §1, §2

[5] = 1 h, end of OSTN 2.5 pmol/kg/min I.V.
[6] = 2 h, end of OSTN 25 pmol/kg/min I.V.
[7] = 3 h, end of OSTN 250 pmol/kg/min I.V.
[8] = 4 h, 1 h after end of infusions
[9] = 5 h, 2 h after end of infusions
[10] = end of 60 min OSTN infusion 2.5 pmol/kg/min
[11] = end of 60 min OSTN infusion 25 pmol/kg/min
[12] = end of 60 min OSTN infusion 250 pmol/kg/min

SFSGFGSPLDRLSAGSVSHKGKQRKVVDHPKRRFGIPMDRIGRNRLSNSRG [OSTN]
Plasma cAMP [1, 5]: 11.5 ± 4.8 pmol/L | Plasma cAMP [1, 6]: 11.6 ± 3.0 pmol/L | Plasma cAMP [1, 7]: 12.9 ± 6.5 pmol/L | Plasma cAMP [1, 8]: 10.4 ± 7.1 pmol/L | Plasma cAMP [1, 9]: 10.7 ± 6.1 pmol/L | Plasma cGMP [1, 10]: 11.2 ± 5.1 nmol/L | Plasma cGMP [1, 11]: 19.0 ± 11.0 nmol/L | Plasma cGMP [1, 12]: 23.1 ± 9.7 nmol/L | Plasma aldosterone [2, 5]: 199 ± 156 pmol/L | Plasma renin activity [2, 5]: 0.153 ± 0.070 nmol/L/h | Plasma aldosterone [2, 6]: 176 ± 137 pmol/L | Plasma renin activity [2, 6]: 0.153 ± 0.065 nmol/L/h | Plasma aldosterone [2, 7]: 167 ± 157 pmol/L | Plasma renin activity [2, 7]: 0.155 ± 0.075 nmol/L/h | Plasma aldosterone [2, 8]: 153 ± 142 pmol/L | Plasma renin activity [2, 8]: 0.186 ± 0.109 nmol/L/h | Plasma aldosterone [2, 9]: 192 ± 130 pmol/L | Plasma renin activity [2, 9]: 0.241 ± 0.181 nmol/L/h | Urine cAMP ([3]; 1 h, OSTN 2.5 pmol/kg/min I.V.): 674 ± 367 pmol/h | Urine creatinine ([3]; 1 h, OSTN 2.5 pmol/kg/min I.V.): 0.635 ± 0.100 mmol/h | Urine potassium ([3]; 1 h, OSTN 2.5 pmol/kg/min I.V.): 15.6 ± 3.5 mmol/h | Urine cAMP ([3]; 2 h, OSTN 25 pmol/kg/min I.V.): 699 ± 322 pmol/h | Urine creatinine ([3]; 2 h, OSTN 25 pmol/kg/min I.V.): 0.593 ± 0.100 mmol/h | Urine potassium ([3]; 2 h, OSTN 25 pmol/kg/min I.V.): 12.7 ± 4.9 mmol/h | Urine cAMP ([3]; 3 h, OSTN 250 pmol/kg/min I.V.): 549 ± 211 pmol/h | Urine creatinine ([3]; 3 h, OSTN 250 pmol/kg/min I.V.): 0.586 ± 0.200 mmol/h | Urine potassium ([3]; 3 h, OSTN 250 pmol/kg/min I.V.): 9.9 ± 3.6 mmol/h | Urine cAMP [3, 8]: 452 ± 219 pmol/h | Urine creatinine [3, 8]: 0.533 ± 0.200 mmol/h | Urine potassium [3, 8]: 7.9 ± 3.4 mmol/h | Urine cAMP [3, 9]: 891 ± 1136 pmol/h | Urine creatinine [3, 9]: 0.542 ± 0.100 mmol/h | Urine potassium [3, 9]: 7.4 ± 3.6 mmol/h | Urine sodium excretion (natriuresis) ([3]; stepped OSTN infusions vs vehicle, P = 0.226): did not increase | Urinary rate (diuresis) ([3]; stepped OSTN infusions vs vehicle, P = 0.467): did not increase | Urinary cGMP excretion ([3]; stepped OSTN infusions vs vehicle, dose-dependent, P = 0.002): increased | Plasma ANP [4, 10]: 24.3 ± 10.1 pmol/L and 24 pmol/L | Plasma BNP [4, 10]: 2.0 ± 0.5 pmol/L | Plasma CNP [4, 10]: 1.21 ± 0.30 pmol/L and 1.2 pmol/L | Plasma ANP [4, 11]: 27.6 ± 10.2 pmol/L | Plasma BNP [4, 11]: 3.1 ± 0.9 pmol/L | Plasma CNP [4, 11]: 2.13 ± 0.50 pmol/L | Plasma ANP [4, 12]: 33.0 ± 14.2 pmol/L | Plasma BNP [4, 12]: 3.9 ± 2.3 pmol/L | Plasma CNP [4, 12]: 3.81 ± 1.30 pmol/L | Plasma NTproCNP ([4]; stepped OSTN infusions 2.5, 25, 250 pmol/kg/min vs vehicle, P = 0.064): no significant effect

Source: paper PMC11291853, “Haemodynamic, hormonal and renal actions of osteocrin in normal sheep” (Experimental Physiology, 2024)
